Where “and” joins values, the source holds several entries; their conditions need not be identical. Equal values may be shown once. Inconclusive results and toxic doses are left out. No stated cut-off is given here; in the data, active means T/C of 150% or more; inactive means T/C below 125%.
Tested on: L1210 leukemia ip in BDF1 mice, survival T/C
Assay: NCI In Vivo Anticancer Drug Screen. Data for tumor model L1210 Leukemia (intraperitoneal) in B6D2F1 (BDF1) mice
Conditions: endpoint: mean survival time, higher = longer survival
In short: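 Transplanted-tumor mice were given test agent; controls received vehicle only. Survival readings from the two groups were divided (treated over control).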

[1] = dose: 100.0 mg/kg/injection, schedule: Q01DX009 (ip), vehicle: Klucel (hydroxypropylcellulose) (HPC)
[2] = dose: 100.0 mg/kg/injection, schedule: Q04DX003 (ip), vehicle: Klucel (hydroxypropylcellulose) (HPC)
[3] = dose: 200.0 mg/kg/injection, schedule: Q01DX009 (ip), vehicle: Klucel (hydroxypropylcellulose) (HPC)
[4] = dose: 200.0 mg/kg/injection, schedule: Q04DX003 (ip), vehicle: Klucel (hydroxypropylcellulose) (HPC)
[5] = dose: 400.0 mg/kg/injection, schedule: Q01DX009 (ip), vehicle: Klucel (hydroxypropylcellulose) (HPC)
[6] = dose: 75.0 mg/kg/injection, schedule: Q01DX001 (ip), vehicle: saline
[7] = dose: 100.0 mg/kg/injection, schedule: Q04DX003 (ip), vehicle: saline with Tween-80
[8] = dose: 200.0 mg/kg/injection, schedule: Q04DX003 (ip), vehicle: saline with Tween-80
[9] = dose: 50.0 mg/kg/injection, schedule: Q01DX009 (ip), vehicle: saline
[10] = dose: 50.0 mg/kg/injection, schedule: Q04DX003 (ip), vehicle: saline with Tween-80
[11] = dose: 100.0 mg/kg/injection, schedule: Q01DX009 (ip), vehicle: saline with Tween-80
[12] = dose: 200.0 mg/kg/injection, schedule: Q01DX009 (ip), vehicle: saline with Tween-80
[13] = dose: 400.0 mg/kg/injection, schedule: Q01DX009 (ip), vehicle: saline with Tween-80
[14] = dose: 400.0 mg/kg/injection, schedule: Q04DX003 (ip), vehicle: saline with Tween-80

Measured: T/C

O=C1c2ccccc2C(=O)N1CCc1ccccc1
inactive: [1] 93 % of control | [2] 97 % of control and 101 % of control | [3] 96 % of control | [4] 94 % of control and 97 % of control | [5] 95 % of control | dose: 400.0 mg/kg/injection, schedule: Q04DX003 (ip), vehicle: Klucel (hydroxypropylcellulose) (HPC) 94 % of control and 101 % of control

CC1C=C2c3ccccc3CC2C2C(=O)OC(=O)C12 (centres undefined)
inactive: [6] 95 % of control | dose: 150.0 mg/kg/injection, schedule: Q01DX001 (ip), vehicle: saline 100 % of control | dose: 300.0 mg/kg/injection, schedule: Q01DX001 (ip), vehicle: saline 100 % of control

OCc1ccc[n+](CCc2c[nH]c3ccccc23)c1
inactive: [7] 97 % of control | [8] 103 % of control

O=C(c1ccccc1)c1cc(O)c(O)c(O)c1
inactive: dose: 100.0 mg/kg/injection, schedule: Q01DX009 (ip), vehicle: other 99 % of control | dose: 100.0 mg/kg/injection, schedule: Q04DX003 (ip), vehicle: saline 100 % of control | dose: 200.0 mg/kg/injection, schedule: Q01DX009 (ip), vehicle: other 90 % of control | dose: 200.0 mg/kg/injection, schedule: Q04DX003 (ip), vehicle: saline 94 % of control | dose: 400.0 mg/kg/injection, schedule: Q01DX009 (ip), vehicle: other 99 % of control | dose: 400.0 mg/kg/injection, schedule: Q04DX003 (ip), vehicle: saline 100 % of control

Cc1cc(Cc2cc(C)cc(C(C)(C)C)c2O)c(O)c(Cc2cc(C)cc(C(C)(C)C)c2O)c1
inactive: dose: 100.0 mg/kg/injection, schedule: Q01DX009 (ip), vehicle: gum acacia 97 % of control | dose: 100.0 mg/kg/injection, schedule: Q04DX003 (ip), vehicle: gum acacia 91 % of control | dose: 200.0 mg/kg/injection, schedule: Q01DX009 (ip), vehicle: gum acacia 96 % of control | dose: 200.0 mg/kg/injection, schedule: Q04DX003 (ip), vehicle: gum acacia 96 % of control | dose: 400.0 mg/kg/injection, schedule: Q01DX009 (ip), vehicle: gum acacia 94 % of control | dose: 400.0 mg/kg/injection, schedule: Q04DX003 (ip), vehicle: gum acacia 96 % of control

O=C1/C(=N/O)CCc2ccccc21
inactive: [9] 102 % of control | dose: 100.0 mg/kg/injection, schedule: Q01DX001 (ip), vehicle: carboxymethylcellulose (CMC) 103 % of control | dose: 100.0 mg/kg/injection, schedule: Q01DX009 (ip), vehicle: saline 103 % of control | dose: 200.0 mg/kg/injection, schedule: Q01DX001 (ip), vehicle: carboxymethylcellulose (CMC) 97 % of control

CCCSCCCC(=O)O
inactive: [1] 88 % of control | [3] 97 % of control

CC1(C)CN1CC1CO1 (centres undefined)
inactive: dose: 3.0 mg/kg/injection, schedule: Q01DX Z (ip), vehicle: saline 120 % of control | dose: 5.0 mg/kg/injection, schedule: Q01DX Z (ip), vehicle: saline 120 % of control | dose: 7.0 mg/kg/injection, schedule: Q01DX Z (ip), vehicle: saline 114 % of control and 118 % of control and 124 % of control | dose: 11.0 mg/kg/injection, schedule: Q01DX Z (ip), vehicle: saline 109 % of control

c1cc2c3c(c1)nc(CCCc1nc4cccc5c4n1CCC5)n3CCC2
inactive: dose: 25.0 mg/kg/injection, schedule: Q04DX003 (ip), vehicle: saline with Tween-80 109 % of control | [10] 96 % of control | [7] 93 % of control and 87 % of control

CC(=O)Cn1c(=O)oc2ccccc2c1=O
inactive: [10] 102 % of control | [7] 108 % of control | [8] 102 % of control

Nc1ccc2scnc2c1
inactive: [11] 98 % of control | [12] 98 % of control | [13] 92 % of control

CCCCOCCC1CCNCC1
inactive: dose: 12.5 mg/kg/injection, schedule: Q01DX009 (ip), vehicle: saline 97 % of control | dose: 12.5 mg/kg/injection, schedule: Q04DX003 (ip), vehicle: saline 96 % of control | dose: 25.0 mg/kg/injection, schedule: Q01DX009 (ip), vehicle: saline 101 % of control | dose: 25.0 mg/kg/injection, schedule: Q04DX003 (ip), vehicle: saline 97 % of control | [9] 101 % of control | dose: 50.0 mg/kg/injection, schedule: Q04DX003 (ip), vehicle: saline 100 % of control

CCOC(=O)C(C)C(=O)Cc1cc(OC)c(C)cc1Br (centres undefined)
inactive: [11] 97 % of control | [7] 97 % of control | [12] 100 % of control | [8] 95 % of control | [13] 105 % of control | [14] 109 % of control

CN(C)c1ccc(NC(=O)Nc2cccc(Cl)c2)cc1
inactive: [11] 91 % of control | [7] 94 % of control | [12] 94 % of control | [8] 100 % of control | [13] 92 % of control | [14] 92 % of control

OC(COc1cccc2ccccc12)CN1CC=C(c2ccccc2)CC1 (centres undefined)
inactive: dose: 12.5 mg/kg/injection, schedule: Q01DX009 (ip), vehicle: Klucel (hydroxypropylcellulose) (HPC) 103 % of control | dose: 25.0 mg/kg/injection, schedule: Q01DX009 (ip), vehicle: Klucel (hydroxypropylcellulose) (HPC) 100 % of control | dose: 50.0 mg/kg/injection, schedule: Q01DX009 (ip), vehicle: Klucel (hydroxypropylcellulose) (HPC) 101 % of control | [1] 100 % of control

O=C(CI)NCc1ccccc1
inactive: [6] 96 % of control

C=CCNC(=S)NNC(=O)c1ccncc1
inactive: [1] 107 % of control | [3] 108 % of control | [5] 104 % of control

CC(=O)c1c(C)[nH]c2ccccc12
inactive: dose: 100.0 mg/kg/injection, schedule: Q01DX001 (ip), vehicle: saline with Tween-80 101 % of control | [7] 95 % of control | dose: 200.0 mg/kg/injection, schedule: Q01DX001 (ip), vehicle: saline with Tween-80 103 % of control | [8] 95 % of control | dose: 400.0 mg/kg/injection, schedule: Q01DX001 (ip), vehicle: saline with Tween-80 97 % of control | [14] 95 % of control

Cc1cc(Cl)c(Cl)cc1NC(=O)c1ccc(Cl)cc1Cl
inactive: dose: 100.0 mg/kg/injection, schedule: Q04DX002 (ip), vehicle: Klucel (hydroxypropylcellulose) (HPC) 108 % of control | dose: 200.0 mg/kg/injection, schedule: Q04DX002 (ip), vehicle: Klucel (hydroxypropylcellulose) (HPC) 94 % of control | dose: 400.0 mg/kg/injection, schedule: Q04DX002 (ip), vehicle: Klucel (hydroxypropylcellulose) (HPC) 108 % of control

O=C(NCCCN1CC1)C(=O)Nc1ccccn1
inactive: [2] 102 % of control | [4] 86 % of control

Reference: PubChem BioAssay AID248 (DTP/NCI, 2004)
